The values below come from US12186303B2, “Feed additive for cattle comprising n-acetyl-l-tryptophan as active ingredient” (CJ CHEILJEDANG CORPORATION, priority 2018, dated 2025).

“Also recorded” adds a separate entry of the source.

Assay [1] relates to genes related to muscle metabolism (MYF6, MyoD, and Desmin) and fat metabolism (PPARr, CEBPa, and FABP4) of the loin tissue. Put plainly: Real-time PCR of gene expression related to loin tissue development under cold stress conditions. Type of assay: in vivo, Korean native cattle. The source says: After grouping the animals by statistical analysis of initial body weights, the animals were bred in 1.0×1.5 m^2 individual pens during the experiment period. The feed was offered based on an amount of dry matter of daily total mixed ration (TMR) per head. After 7 days of an adaptation period for N-acetyl-L-tryptophan (NALT), a mixture of 0.1% N-acetyl-L-tryptophan (NALT) and the total mixed ration was fed to individual animals every morning at 8 a.m. for 6 weeks, and water was available ad libitum. Total amounts of L-tryptophan ingested by the control and NALT-treated group by feeding NALT were 7.37 g/day/head and 16.26 g/day/head, respectively. The experiment was performed such that the NALT-treated group ingested 8.89 g/day/head more L-tryptophan than that of the control. Meanwhile, results of growth performance analysis (body weight and average feed intake) and genetic analysis of loin tissue were obtained by statistically comparing and analyzing significant differences between the control and the NALT-treated group, and results of hematological analysis were obtained via statistical comparison and analysis depending on NALT treatment, experiment period (days), and interaction (treatment×days). These numerical values were expressed as average values, and a significance test was performed at the 5% level using Student's t-test by using the JMP 5.0 software package (SAS Institute Inc., Cary, NC, USA). Samples of loin tissue of the sentinel animals were obtained at the final day of the experiment (day 48) using a biopsy gun for large animals (TNT Research Co., Ltd., Gyeonggi-do, Republic of Korea), added to a 2 mL tube, and incubated in liquid nitrogen gas. After extracting RNA from each tissue sample, real-time PCR was conducted to analyze expression levels of genes related to muscle metabolism (MYF6, MyoD, and Desmin) and fat metabolism (PPARr, CEBPa, and FABP4) of the loin tissue of each animal.
(In general: Quantitative PCR measures a nucleic acid by following its amplification.)

The next assay concerns Korean native steers. Kind of assay: Body weight, average daily gain and feed conversion ratio according to NALT feeding under cold stress conditions. Type of assay: in vivo, Korean native cattle. As for the experimental part:
In the present disclosure, 8 Korean native steers (8.3±0.72 months old on average) were selected and used. […] Analysis of chemical composition (moisture, crude protein, crude fat, crude ash, etc.) and amino acids (19 types) of the basal diet stored at −20° C. was performed, and the results are shown in Table 3. After grouping the animals by statistical analysis of initial body weights, the animals were bred in 1.0×1.5 m^2 individual pens during the experiment period. The feed was offered based on an amount of dry matter of daily total mixed ration (TMR) per head. After 7 days of an adaptation period for N-acetyl-L-tryptophan (NALT), a mixture of 0.1% N-acetyl-L-tryptophan (NALT) and the total mixed ration was fed to individual animals every morning at 8 a.m. for 6 weeks, and water was available ad libitum. Total amounts of L-tryptophan ingested by the control and NALT-treated group by feeding NALT were 7.37 g/day/head and 16.26 g/day/head, respectively. The experiment was performed such that the NALT-treated group ingested 8.89 g/day/head more L-tryptophan than that of the control. Meanwhile, results of growth performance analysis (body weight and average feed intake) and genetic analysis of loin tissue were obtained by statistically comparing and analyzing significant differences between the control and the NALT-treated group, and results of hematological analysis were obtained via statistical comparison and analysis depending on NALT treatment, experiment period (days), and interaction (treatment×days). These numerical values were expressed as average values, and a significance test was performed at the 5% level using Student's t-test by using the JMP 5.0 software package (SAS Institute Inc., Cary, NC, USA). An average temperature during the adaptation period (days 0-6) was 4.3° C., and average temperatures during the experiment period were in the range of −6.2° C. to 4.2° C., relatively low compared to that of the adaptation period. In addition, an average temperature of the entire experiment period (days 7-48) was −1.0° C. Initial weight (day 0), intermediate weight (day 27), and end weight (day 48) of sentinel animals were measured, i.e., three times in total, before offering morning feed. The average daily gain (average daily weight gain, ADG) of the sentinel animals was calculated by dividing the differences in weight, between the initial weight and the intermediate weight and between the intermediate weight and the end weight, by the total number of days of the experiment.

[2] abbreviates: 0.1% NALT, day 48, control = 1.000.

Regarding `CC(=O)N[C@@H](Cc1c[nH]c2ccccc12)C(=O)O` [NALT, N-acetyl-L-tryptophan], in assay [1], the “Expression of genes (MYF6, MyoD, and Desmin) related to muscle metabolism of loin tissue compared with the control” value is listed as “did not show a statistically significant difference; also recorded: No statistically significant difference”; the “Expression of genes (PPARr, CEBPa, and FABP4) related to fat metabolism of loin tissue compared with the control” value was “lower”. For the same compound, in assay [1] (setting [2]), the “CEBPa expression level in loin tissue” value stood at 0.293, the “Desmin expression level in loin tissue” value is on record as 0.871, the “FABP4 expression level in loin tissue” value worked out at 0.233 and the “MYF6 expression level in loin tissue” value was 0.834. For the same compound, in assay [1] (setting [2]), the “MyoD expression level in loin tissue” value is 0.857 and the “PPARr expression level in loin tissue” value amounted to 0.274. Also, in the assay with Korean native steers (0.1% NALT in TMR), the “Decrease of feed conversion ratio compared to the control” value came out at 63% and the “Feed conversion ratio of the NALT-treated group relative to the control” value worked out at 37%. Besides, the Body weight in the assay with Korean native steers (0.1% NALT in TMR, Day 0 (initial weight)) was found to be 279.7 kg. In the assay with Korean native steers (0.1% NALT in TMR, Day 27), the Body weight is 301.5 kg and the Feed conversion ratio is reported as 13.3. The “ADG (average daily gain)” value in the assay with Korean native steers (0.1% NALT in TMR, Day 27 (day 0 to day 27)) is listed as 0.753 kg/day. In addition, in the assay with Korean native steers (0.1% NALT in TMR, Day 48), the Body weight is on record as 315.7 kg and the Feed conversion ratio came to 4.82. In addition, in the assay on Korean native steers (0.1% NALT in TMR, Day 48 (day 27 to day 48)), the “ADG (average daily gain)” value is on record as 0.766 kg/day. Further, the “Total weight change compared with the control” value with Korean native steers (day 27 and day 48) is “no statistically significant difference”.
